{"source": "patent US10781197B2", "about": "“Sulfonamide analogues of galiellalactone” (GLACTONE PHARMA DEVELOPMENT AB, priority 2016, dated 2020)", "key": {"[1]": {"assay": "In vivo pharmacokinetics, plasma exposure after single oral dose", "details": "CD1 mice, single oral gavage 10 mg/kg", "protocol": "Pharmacokinetic (PK) studies were performed in CD1 mice to establish plasma exposure following administration of single oral doses of galiellalactone (GL) and example 1. Sample analysis was by LC-MS/MS. Dose solutions were prepared at a drug concentration of 0.5 mg/mL in 5% DMSO in 50 mM citrate buffer (citric acid/sodium citrate pH 4.0) and administered as a 20 mL/kg oral gavage (10 mg/kg)."}, "STAT3 signaling": {"test_system": "STAT3 signaling", "assay": "STAT3 Luciferase reporter gene assay", "type": "cell-based", "details": "for IC50: Homo sapiens, STAT3 reporter/HEK293 cell line, 1 h pretreatment, IL-6 induced for 16 h, luciferase activity, read-out: IC50", "protocol": "The ability to inhibit STAT3 signaling of the example compounds in comparison to galiellalactone was evaluated using a STAT3 Luciferase reporter gene assay.\nCompounds were tested for dose response activity to determine IC50 at eight different doses (0.03, 0.1, 0.3, 1, 3, 10, 30 and 100 μM) in triplicate on the STAT3 reporter system.\nBriefly, the STAT3 reporter/HEK293 cell line was plated in 96-well white plates for 16 h. Cells were pretreated with compounds for 1 h. Cells were then treated with IL-6 to induce STAT3 activation for 16 h. Luciferase activity was measured and analyzed."}, "[2]": {"test_system": "IL-6 stimulated LNCaP prostate cancer cells", "assay": "Inhibition of IL-6 stimulated LNCaP cell proliferation, MTT assay", "type": "cell-based", "details": "Homo sapiens, IL-6 stimulated LNCaP cells, read-out: GIC50"}, "[3]": {"assay": "Chemical stability in phosphate buffer solution (PBS)", "type": "physicochemical", "details": "37° C., 1 μM test concentration", "protocol": "The chemical stability of example 20 and 28 in solution was determined in phosphate buffer solution (PBS) at 37° C. as outlined below.\nA 4 μl volume of 100 μM stock solution of the study compound in 50% DMSO was added to 396 μl of PBS, to obtain 1 μM test concentration. The study compounds were incubated in PBS at 37° C. with 600 rpm shaking. The incubations were quenched (30, 60, and 120 min) using a two-fold volume of cold acetonitrile and analyzed. The samples (0, 30, 60, and 120 min) were analyzed using a Waters Acquity UPLC with Thermo Q-Exactive Focus Orbitrap and a Waters HSS T3 (2.1×50 mm, 1.7 μm particle size) column."}, "IL-6/STAT3 signaling": {"test_system": "IL-6/STAT3 signaling", "details": "cited from earlier work"}}, "note": "Like-named read-outs stand apart in the source and are kept apart here.", "data": [{"smiles": "Cc1ccc(S(=O)(=O)N[C@@]2(C)C=C3C(=O)O[C@@H]4CC[C@H](C2)[C@]34O)cc1", "note": "[Example 1, N-[(4R,7R,9R,11S)-11-Hydroxy-9-methyl-2-oxo-3-oxatricyclo[5.3.1.0^4,11]undec-1(10)-en-9-yl]-4-methylbenzene-1-sulfonamide]", "values": [{"measurement": "AUC(0-inf)", "setting": "[1]; mouse", "result": 157, "unit": "ng·h/mL"}, {"measurement": "AUC(0-t)", "setting": "[1]; mouse", "result": 141, "unit": "ng·h/mL"}, {"measurement": "half-life", "setting": "[1]; mouse, read-out: Apparent half-life (converted)", "result": 2, "unit": "h"}, {"measurement": "Cmax", "setting": "[1]; mouse, read-out: Cmax", "result": 129, "unit": "ng/mL"}, {"measurement": "Tmax", "setting": "[1]; mouse, read-out: Tmax", "result": 0.25, "unit": "h"}, {"measurement": "IC50", "setting": "STAT3 signaling", "result": 1.1, "unit": "µM"}, {"measurement": "IC50", "setting": "[2]", "result": 1, "unit": "µM"}]}, {"smiles": "C[C@]1(NS(=O)(=O)c2ccc(C(F)(F)F)cn2)C=C2C(=O)O[C@@H]3CCC(C1)[C@]23O", "note": "(stereo partly drawn) [Example 20, N-[(4R,7R,9R,11S)-11-hydroxy-9-methyl-2-oxo-3-oxatricyclo[5.3.1.0^4,^11]undec-1(10)-en-9-yl]-5-(trifluoromethyl)pyridine-2-sulfonamide]", "values": [{"measurement": "IC50", "setting": "STAT3 signaling", "result": 1.25, "unit": "µM"}, {"measurement": "half-life at 1 μM", "setting": "[3]", "result": 5.82, "unit": "h"}]}, {"smiles": "CC(C)S(=O)(=O)N[C@@]1(C)C=C2C(=O)O[C@@H]3CC[C@H](C1)[C@]23O", "note": "[Example 24, N-[(4R,7R,9R,11 S)-11-Hydroxy-9-methyl-2-oxo-3-oxatricyclo[5.3.1.0^4,11]undec-1(10)-en-9-yl]propane-2-sulfonamide]", "values": [{"measurement": "activity in the STAT3 reporter assay (in words)", "setting": "STAT3 signaling", "result": "significantly reduced or total loss of activity"}, {"measurement": "IC50", "setting": "STAT3 signaling", "result": 97, "unit": "µM"}, {"measurement": "activity in the STAT3 reporter assay (in words)", "setting": "STAT3 signaling; listed as example 24", "result": "no or low activity"}]}, {"smiles": "COc1ccc(CN2C(=O)C3=C[C@](C)(NS(=O)(=O)c4ccc(C)cc4)CC4CC[C@@H]2[C@@]34O)cc1", "note": "(stereo partly drawn) [Example 25, N-[(4R,7R,9R,11S)-11-hydroxy-3-[(4-methoxyphenyl)methyl]-9-methyl-2-oxo-3-azatricyclo[5.3.1.04,^11]undec-1(10)-en-9-yl]-4-methylbenzene-1-sulfonamide]", "values": [{"measurement": "IC50", "setting": "STAT3 signaling", "result": 3.7, "unit": "µM"}]}, {"smiles": "COc1ccc(CN2C(=O)C3=C[C@](C)(NS(=O)(=O)c4ccc(C(F)(F)F)cn4)CC4CC[C@@H]2[C@@]34O)cc1", "note": "(stereo partly drawn) [Example 26, N-[(4R,7R,9R,11S)-11-Hydroxy-3-[(4-methoxyphenyl)methyl]-9-methyl-2-oxo-3-azatricyclo[5.3.1.04,^11]undec-1(10)-en-9-yl]-5-(trifluoromethyl)pyridine-2 sulfonamide]", "values": [{"measurement": "IC50", "setting": "STAT3 signaling", "result": 8.64, "unit": "µM"}]}, {"smiles": "C[C@]1(NS(=O)(=O)c2ccc(C(F)(F)F)cn2)C=C2C(=O)N(Cc3ccc(C#N)cc3)[C@@H]3CC[C@H](C1)[C@]23O", "note": "[Example 27, N-[(4R,7R,9R,11S)-3-[(4-Cyanophenyl)methyl]-11-hydroxy-9-methyl-2-oxo-3-azatricyclo[5.3.1.0^4,11]undec-1 (10)-en-9-yl]-5-(trifluoromethyl)pyridine-2-sulfonamide]", "values": [{"measurement": "IC50", "setting": "STAT3 signaling", "result": 8.61, "unit": "µM"}]}, {"smiles": "C[C@]1(NS(=O)(=O)c2ccc(C(F)(F)F)cn2)C=C2C(=O)O[C@]3(C)CC[C@H](C1)[C@]23O", "note": "[Example 28, N-[(4R,7R,9R,11S)-11-hydroxy-4,9-dimethyl-2-oxo-3-oxatricyclo[5.3.1.0^4,11]undec-1 (10)-en-9-yl]-5-(trifluoromethyl)pyridine-2-sulfonamide]", "values": [{"measurement": "IC50", "setting": "STAT3 signaling", "result": 0.92, "unit": "µM"}, {"measurement": "half-life at 1 μM", "setting": "[3]", "result": "> 13.2", "unit": "h"}]}, {"smiles": "C[C@@H]1C=C2C(=O)O[C@@H]3CC[C@H](C1)[C@]23O", "note": "[Galiellalactone, (−)-Galiellalactone]", "values": [{"measurement": "Cmax", "setting": "[1]", "result": 52, "unit": "ng/mL"}, {"measurement": "Tmax", "setting": "[1]", "result": 0.5, "unit": "h"}, {"measurement": "IC50", "setting": "STAT3 signaling", "result": 7.5, "unit": "µM"}, {"measurement": "IC50", "setting": "[2]", "result": 2.8, "unit": "µM"}, {"measurement": "inhibition of IL-6/STAT3 signaling", "setting": "IL-6/STAT3 signaling", "result": "submicromolar"}]}]}
